We go through seven compounds from US20250115598A1 (Anaxis Pharma Pty Ltd, priority 2021, published 2025).

Assay [1] deals with human MLKL (full length) (Homo sapiens (Human), UniProt Q8NB16). Description: KINOMEscan binding assay, human MLKL (full length). The following applies: hMLKL, Table 25; read-out: MLKL (KD). In short, it runs like this: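 Compound dilutions (11 points, 3-fold, mostly from 30,000 nM, 1% DMSO final) competed with immobilized ligand for DNA- or phage-tagged protein, and bead-bound protein was measured by qPCR. Kd values came from Hill-equation fits with slope −1 (Levenberg-Marquardt).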

For assay [2], the target named is endogenous MLKL in MDF (Mus musculus (Mouse), UniProt Q9D2Y4). The assay is described as follows: Degradation assay: endogenous MLKL in MDF (western blot). The following applies: MDF cells, 24 h incubation with compound, MLKL adjusted for loading with GAPDH, normalized to DMSO only control, read-out: Degradation of endogenous MLKL in MDF (DC50 cell-based assay). In short, it runs like this: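 MDF (seeded the day before) or U937 cells were treated 24 h at 37 °C, 10% CO2 with compound at 10, 2, 0.4, 0.08 and 0.016 μM final. Endogenous MLKL was quantified by western blot (anti-MLKL 3H1), normalized to GAPDH. Percent degradation was taken relative to DMSO control.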

For assay [3], the system named is Immortalised Mouse Dermal Fibroblasts (MDFs). Description: Cellular assay: inhibition of TSI induced necroptosis, CellTitre-Glo viability. To be noted: Mus musculus, Fibroblast; MDF, 3 hours TSI cocktail, Table 27; read-out: Inhibition of TSI-induced necroptosis (IC50 cell-based assay) in MDF. The essentials: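 Immortalised mouse dermal fibroblasts (2200 cells/well) pretreated 30 min with compound, 10-point 1:3 series from 36 μM, 0.3% DMSO. Then 3 h at 37° C. with TNF (100 ng/ml), Smac mimetic (500 nM) and IDN-6556 (10 μM). CellTiter-Glo luminescence normalised to DMSO (100%) and DMSO+TSI (0%); IC50 from 4-parameter logistic fit.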

Structures are written as SMILES.

human MLKL (full length), sequence (Q8NB16 whole entry): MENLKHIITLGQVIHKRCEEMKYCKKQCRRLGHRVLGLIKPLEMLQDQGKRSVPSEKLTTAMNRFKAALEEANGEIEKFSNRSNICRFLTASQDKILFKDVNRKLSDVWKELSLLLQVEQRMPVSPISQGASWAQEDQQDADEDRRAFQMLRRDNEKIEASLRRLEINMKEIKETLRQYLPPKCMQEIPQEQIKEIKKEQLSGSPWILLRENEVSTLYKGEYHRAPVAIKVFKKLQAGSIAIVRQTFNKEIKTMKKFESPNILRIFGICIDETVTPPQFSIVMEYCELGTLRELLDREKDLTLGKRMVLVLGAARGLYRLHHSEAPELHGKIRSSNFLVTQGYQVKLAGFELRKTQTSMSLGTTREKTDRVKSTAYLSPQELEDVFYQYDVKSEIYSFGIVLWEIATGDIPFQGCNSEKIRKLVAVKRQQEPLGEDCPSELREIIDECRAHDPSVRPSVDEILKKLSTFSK
endogenous MLKL in MDF, sequence (Q9D2Y4 whole entry): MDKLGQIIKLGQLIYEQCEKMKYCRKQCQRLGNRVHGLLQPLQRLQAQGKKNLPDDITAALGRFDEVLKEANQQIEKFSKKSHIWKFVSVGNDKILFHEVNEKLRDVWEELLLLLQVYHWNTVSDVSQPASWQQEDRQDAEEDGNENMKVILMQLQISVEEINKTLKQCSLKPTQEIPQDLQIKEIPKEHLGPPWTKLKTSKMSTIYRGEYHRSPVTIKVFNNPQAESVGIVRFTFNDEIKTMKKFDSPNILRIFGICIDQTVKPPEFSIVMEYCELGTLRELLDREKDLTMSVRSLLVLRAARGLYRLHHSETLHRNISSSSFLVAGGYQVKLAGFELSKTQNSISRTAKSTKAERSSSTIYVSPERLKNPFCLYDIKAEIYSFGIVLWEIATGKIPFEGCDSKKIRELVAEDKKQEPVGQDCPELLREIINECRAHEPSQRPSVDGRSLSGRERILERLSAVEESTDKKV

With `C[C@H](Oc1cc(-c2nn(C)c3c(-c4cnn(C5CCN(C(=O)[C@H]6C[C@H](Nc7cccc8c7C(=O)N(C7CCC(=O)NC7=O)C8=O)C6)C6(CC6)C5)c4)cnc(N)c23)ccc1NS(=O)(=O)C(F)F)c1ccc(F)cc1` (stereo partly drawn) [Compound 1107, N-{4-[4-amino-1-methyl-7-(1-{4-[(1r,3r)-3-{[2-(2,6-dioxopiperidin-3-yl)-1,3-dioxo-2,3-dihydro-1H-isoindol-4-yl]amino}cyclobutanecarbonyl]-4-azaspiro[2.5]octan-7-yl}-1H-pyrazol-4-yl)-1H-pyrazolo[4,3-c]pyridin-3-yl]-2-[(1S)-1-(4-fluorophenyl)ethoxy]phenyl}-1,1-difluoromethanesulfonamide], in assay [1], the Kd – broadly, the free concentration of one partner at which half of the binding sites on the other are occupied at equilibrium, for simple one-to-one binding – lay within 10 to 1000 nM. In addition, the DC50 (as a rule, the concentration giving 50% degradation) in assay [2] was < 1000 nM. Besides, in assay [3], the IC50 (commonly the midpoint of a concentration-inhibition curve) was < 1000 nM.
In the case of `C[C@H](Oc1cc(-c2nn(C)c3c(-c4cnn(C5CCN(C(=O)[C@]6(F)C[C@H](Nc7cccc8c7C(=O)N(C7CCC(=O)NC7=O)C8=O)C6)CC5)c4)cnc(N)c23)ccc1NS(=O)(=O)C(F)F)c1ccc(F)cc1` (stereo partly drawn) [Compound 1110, N-{4-[4-amino-1-methyl-7-(1-{1-[(trans)-3-{[2-(2,6-dioxopiperidin-3-yl)-1,3-dioxo-2,3-dihydro-1H-isoindol-4-yl]amino}-1-fluoro-cyclobutanecarbonyl]piperidin-4-yl}-1H-pyrazol-4-yl)-1H-pyrazolo[4,3-c]pyridin-3-yl]-2-[(1S)-1-(4-fluorophenyl)ethoxy]phenyl}-1,1-difluoromethanesulfonamide], in assay [1], the Kd was < 10 nM. Further, in assay [2], the DC50 is < 1000 nM. Also, the half-maximal inhibitory concentration (IC50) in assay [3] was < 1000 nM.
As to `C[C@H](Oc1cc(-c2nn(C)c3c(-c4cnn(C5CCN(C(=O)[C@]6(F)C[C@@H](Nc7cccc8c7C(=O)N(C7CCC(=O)NC7=O)C8=O)C6)CC5)c4)cnc(N)c23)ccc1NS(=O)(=O)C(F)F)c1ccc(F)cc1` (stereo partly drawn) [Compound 1111, N-{4-[4-amino-1-methyl-7-(1-{1-[(cis)-3-{[2-(2,6-dioxopiperidin-3-yl)-1,3-dioxo-2,3-dihydro-1H-isoindol-4-yl]amino}-1-fluorocyclobutane-carbonyl]piperidin-4-yl}-1H-pyrazol-4-yl)-1H-pyrazolo[4,3-c]pyridin-3-yl]-2-[(1S)-1-(4-fluorophenyl)ethoxy]phenyl}-1,1-difluoro-methanesulfonamide], the Kd in assay [1] is 10 to 1000 nM. For the same compound, in assay [2], the half-maximal degradation concentration (DC50) is < 1000 nM. Also, the IC50 in assay [3] was < 1000 nM.
For `C[C@H](Oc1cc(-c2nn(C)c3c(-c4cnn(C5CCN(C(=O)[C@H]6C[C@H](Nc7cccc8c7C(=O)N(C7CCC(=O)NC7=O)C8=O)C6)C(C)(C)C5)c4)cnc(N)c23)ccc1NS(=O)(=O)C(F)F)c1ccc(F)cc1` (stereo partly drawn) [Compound 1116, N-{4-[4-amino-7-(1-{2,2-dimethyl-1-[(trans)-3-{[2-(2,6-dioxopiperidin-3-yl)-1,3-dioxo-2,3-dihydro-1H-isoindol-4-yl]amino}cyclobutanecarbonyl]piperidin-4-yl}-1H-pyrazol-4-yl)-1-methyl-1H-pyrazolo[4,3-c]pyridin-3-yl]-2-[(1S)-1-(4-fluorophenyl)ethoxy]phenyl}-1,1-difluoromethanesulfonamide], in assay [1], the Kd is < 10 nM. In addition, the DC50 in assay [2] is < 1000 nM. Moreover, in assay [3], the IC50 was in the range of 1000 to 10000 nM.
On to `C[C@H](Oc1cc(-c2nn(C)c3c(-c4cnn(C5CCN(C(=O)C6CC(N(C)c7cccc8c7C(=O)N(C7CCC(=O)NC7=O)C8=O)C6)CC5)c4)cnc(N)c23)ccc1NS(=O)(=O)C(F)F)c1ccc(F)cc1` (stereo partly drawn) [Compound 1119, N-{4-[4-amino-1-methyl-7-(1-{1-[(trans)-3-{[2-(2,6-dioxopiperidin-3-yl)-1,3-dioxo-2,3-dihydro-1H-isoindol-4-yl](methyl)amino}cyclobutanecarbonyl]piperidin-4-yl}-1H-pyrazol-4-yl)-1H-pyrazolo[4,3-c]pyridin-3-yl]-2-[(1S)-1-(4-fluorophenyl)ethoxy]phenyl}-1,1-difluoromethanesulfonamide], for which, in assay [1], the equilibrium dissociation constant (Kd) was < 10 nM. Also, in assay [2], the DC50 is < 1000 nM. Besides, the half-inhibitory concentration (IC50) in assay [3] was < 1000 nM.
Consider `C[C@H](Oc1cc(-c2nn(C)c3c(-c4cnn(C5CCN(CCN6CCCC(COc7cccc8c7C(=O)N(C7CCC(=O)NC7=O)C8=O)C6)CC5)c4)cnc(N)c23)ccc1NS(=O)(=O)C(F)F)c1ccc(F)cc1` (stereo partly drawn) [Compound 1132, N-(4-{4-amino-7-[1-(1-{2-[3-({[2-(2,6-dioxopiperidin-3-yl)-1,3-dioxo-2,3-dihydro-1H-isoindol-4-yl]oxy}methyl)piperidin-1-yl]ethyl}piperidin-4-yl)-1H-pyrazol-4-yl]-1-methyl-1H-pyrazolo[4,3-c]pyridin-3-yl}-2-[(1S)-1-(4-fluorophenyl)ethoxy]phenyl)-1,1-difluoromethanesulfonamide], for which the Kd in assay [1] was 10 to 1000 nM. Besides, in assay [2], the DC50 is < 1000 nM. Also, in assay [3], the IC50 was < 1000 nM.
For the compound `C[C@H](Oc1cc(-c2nn(C)c3c(-c4cnn(C5CCC(C(=O)N6CC(Nc7cccc8c7C(=O)N(C7CCC(=O)NC7=O)C8=O)C6)CC5)c4)cnc(N)c23)ccc1NS(=O)(=O)C(F)F)c1ccc(F)cc1` (stereo partly drawn) [Compound 1133, N-[4-(4-amino-7-{1-[4-(3-{[2-(2,6-dioxopiperidin-3-yl)-1,3-dioxo-2,3-dihydro-1H-isoindol-4-yl]amino}azetidine-1-carbonyl)cyclohexyl]-1H-pyrazol-4-yl}-1-methyl-1H-pyrazolo[4,3-c]pyridin-3-yl}-2-[(1S)-1-(4-fluorophenyl)ethoxy]phenyl]-1,1-difluoromethanesulfonamide], the Kd in assay [1] was 10 to 1000 nM. The DC50 in assay [2] is < 1000 nM. Moreover, in assay [3], the half-inhibitory concentration (IC50) was in the range of 1000 to 10000 nM.
